Assay results reported in patent US20140286906A1, “USE OF IGF-1 IN THE MODULATION OF TREG CELL ACTIVITY AND THE TREATMENT AND PREVENTION OF AUTOIMMUNE DISORDERS OR DISEASES” (priority 2011, published 2014).

Assays:
CD4+CD25+ cells = assay: Annexin V / living dye apoptosis flow cytometry, CD4+CD25+ cells; assay type: cell-based, murine
Description: The effects of IGF-1 on apoptosis can be measured by flow cytometry. By using a combination of a living dye and Annexin V staining it is possible to determine four different cell populations which correspond to non-apoptotic, necrotic, early and late apoptosis.
Initially, and in order to characterize the in vitro effects of IGF-1 on the different populations of the […] immune system, murine splenic CD4 positive cells were sorted by FACS based on the expression of CD25. This allows for the separation and enrichment of conventional T cells (CD25 negative) and regulatory T cells (CD25 positive). […] To exclude the possibility that the observed expansion was due to the anti-apoptotic properties of IGF-1, the cells in culture were stained with AnnexinV (a marker of apoptosis) and a vital dye, and then analyzed by flow cytometry.

CD4+CD25+ splenic cells = assay: qRT-PCR and microarray gene expression in CD4 CD25 double positive splenic cells; assay type: cell-based, murine
Protocol: To further support the effect of IGF-1 on T regulatory function qRT-PCR analysis was performed on CD4 CD25 double positive splenic purified cells in the presence or absence of IGF-1 (FIG. 3). […] IL-10 is a cytokine with a potent anti-inflammatory activity that is produced, among others, by regulatory T cells (Mosser and Zhang, 2008) and its expression is not dependent on Foxp3 expression (Gavin et al., 2007). Foxp3 IL10 expressing cells mainly localize in the intestine and are important regulators of intestine homeostasis. For example, mice with conditional deletion of IL-10 develop spontaneous inflammation of the intestine (Roers et al., 2004). […] Additionally, IL-10 is also important for the maintenance of Foxp3 expression in vivo in mice with colitis (Murai et al., 2009). The inventors performed microarray analysis comparing IGF-1 treated and untreated Tregs. […] An example of these genes is granzyme B, which enables T regulatory cells to actively kill APCs and Teff cells in extreme conditions. These and other mechanisms are believed to lead in vivo to the resolution of the immune response (Tang and Bluestone, 2008). Thus, maintaining the suppressive function after cell expansion was a critical aspect regarding the use of IGF-1 for restoring the balance of effector and regulatory.

[1] = test system: CD4+ cells isolated from mesenteric lymph nodes; assay: intraperitoneal injection, RT-PCR of CD4+ cells from mesenteric lymph nodes; assay type: in vivo, mice; conditions: five intraperitoneal daily injections (5 μg); RT-PCR after the fifth day; n=30, P=0.0241
STZ induced diabetes = assay: streptozotocin (STZ) induced autoimmune diabetes, systemic rhIGF-1 delivery; assay type: in vivo, mice
Description: Regarding the functional assay for diabetes a protocol that measures the clearance of a standardized glucose load from the body after intraperitoneal injection was used (intraperitoneal glucose tolerance test, see Heikkinen et al. (2007)).
Beta-cells sense glucose levels and release insulin to maintain physiologic glucose levels within a relatively narrow range. Destruction of beta-cells by the immune system is correlated with the inability to control glucose levels (measured by the glucose tolerance test). Another way to assess whether IGF-1 stimulates proliferation and/or recruitment of regulatory T cells to the damaged tissues is by determining the number of FOXP3 expressing cells per unit area in the affected tissues by immunohistochemistry.
(§1) Shortly, single cell suspensions are prepared from the […] and spinal cord. The resulting cells are stained with anti-CD4 antibodies and separated using fluorescent-activated cell sorting. RNA is then extracted and purified and serves as a template for a quantitative RT-PCR reaction with Taqman probes. Finally, the relative amount of each mRNA compared to a house-keeping gene (Hprt) is determined.
An accepted model of experimental autoimmune diabetes in mice is the induction of diabetes by multiple injections of a low dose of streptozotocin (STZ). STZ causes diabetes by direct beta cell cytotoxicity as well as by initiation of T cell-mediated autoimmune attack of β-cells (O'Brian et al., 1996). Using this model the inventors examined if systemic delivery of rhIGF-1 could prevent autoimmune diabetes in the early stages of the disease. […] The inventors therefore addressed the effects of IGF-1 […] and sixty-one days after the treatment was stopped.
First the inventors examined the ability of CsA to suppress IGF-1 activity in vitro. […] Then the inventors tested whether CsA treatment in vivo could also impair IGF-1 protective effect at early stages of the disease. A GTT was performed three weeks from the first STZ injection.

[2] = test system: experimental autoimmune encephalomyelitis (EAE); assay type: in vivo
Protocol: Regarding EAE, clinical severity of the disease is scored using a grading score from 0 to 5, where 0 means no clinical signs and 5 means a moribund paralysed mouse. As the disease progresses the body is paralysed progressively from tail to upper limbs. In these experiments the protocol described by Stromnes and Goverman (2006) is used.
as §1
Based on these and our previous observations, the inventors hypothesized that systemic and prolonged delivery of IGF-1 in mice developing EAE would increase and correctly localized Tregs and thus positively affect the course of the disease. The inventors therefore implanted subcutaneously the IGF-1 delivery devices and induced EAE in mice. […] In order to determine if the amelioration of the disease was associated with an increase in T regulatory function, the inventors performed immunohistochemical analysis to determine the number and localization of T regulatory cells in the spinal cord at the early stages of the disease. […] There was therefore a negative correlation between the number of Treg cells and the observed clinical score. Moreover, both clinical improvement and increased regulatory cell number associated with IGF-1 treatment were abolished by CTLA-4 blockade, which interferes with regulatory T cell function (FIG. 26; Herman et al., 2004).
The inventors induced EAE and mice and initiated the IGF-1 treatment when the first signs of paralysis appeared (FIG. 27).

EAE = conditions: i.v. 600 μg/day for six days (Liu et al. 1997); cited from earlier work
[3] = qRT-PCR, compared to non-treated cultures
[4] = RT-PCR day 27, compared to control mice

Substance: Insulin-like growth factor-1 [IGF-1]
- distribution of Annexin V and living dye stained populations (CD4+CD25+ cells): No difference
- granzyme B gene expression (CD4+CD25+ splenic cells; microarray, IGF-1 treated versus untreated Tregs): upregulated
- Foxp3 mRNA (CD4+CD25+ splenic cells; [3]): upregulated from day 1
- IL-10 mRNA (CD4+CD25+ splenic cells; [3]): upregulated but with delayed kinetics
- expression of Foxp3 in CD4+ cells from mesenteric lymph nodes [1]: increased expression
- ratio of CD4:Foxp3 positive cells in the spleen (STZ induced diabetes; IGF-1 treatment, P=0.004): decreased
- Foxp3 mRNA in pancreatic CD4 positive cells (STZ induced diabetes; RT-PCR seven weeks after disease induction, beyond treatment): higher expression
- cell mass and architecture of insulin-producing pancreatic islands (insulin staining) (STZ induced diabetes; day ninety-seven after first STZ injection): long-lasting protective effects
- density of T regulatory cells in pancreas (Foxp3 staining) (STZ induced diabetes; day ninety-seven after first STZ injection, P=0.0159): higher density of T regulatory cells
- glucose control in untreated (non-diabetic) mice (STZ induced diabetes; mice without STZ): no effect
- glucose homeostasis (GTT AUC) after end of treatment (STZ induced diabetes; nice and sixty-one days after treatment was stopped, P37d=0.016, P89d=0.036): long-term improved glucose homeostasis
- blood glucose in glucose tolerance test (GTT) (STZ induced diabetes; three weeks from first STZ injection, four weeks after pump implantation): lower glucose levels
- Foxp3 expression in CD4 positive cells of the spinal cord [2, 4]: increase
- IL-10 expression in CD4 positive cells of the spinal cord [2, 4]: increase
- IL-17 expression in CD4 positive cells of the spinal cord [2, 4]: decrease
- interferon-gamma expression in CD4 positive cells of the spinal cord [2, 4]: decrease
- Treg cell number in the spinal cord (immunohistochemistry) ([2]; early stages of the disease): increase in Treg cell number
- detrimental effect in EAE ([2]; mouse, in vivo): never showed a detrimental effect
- mortality ([2]; prophylactic or therapeutic manner, n=34, P=0.028): significantly reduced mortality
- clinical outcome (clinical grading) ([2]; prophylactic: delivery device implanted day -3, immunization day 0, 4 weeks, n=13): improved clinical outcome
- clinical severity ([2]; therapeutic: applied after onset of disease (day 11), P<0.05 from day 13): reduced clinical severity
- number of infiltrating T cells and macrophages (EAE): reduction
